The experiment concerns the target T1, ΔF508-CFTR (Homo sapiens, UniProt P13569, DEL508-508).
T1 construct: Primary lung epithelial cells homozygous for the Cystic Fibrosis-causing ΔF508 mutation were differentiated for a minimum of 4 weeks; endogenous in cells; host or cells: primary lung epithelial cells (hBE) homozygous for ΔF508, differentiated at an air-liquid interface
Description: hBE equivalent current (Ieq) assay: AUC of equivalent chloride current after forskolin/VX-770 in primary lung epithelial cells homozygous for ΔF508. The format is cell-based. The settings on record: relative to CFTR amplifier (Compound A)+VX-809 (3 uM), compound at 10 uM and Compound A at 3 uM, 24 h treatment. An outline of the steps:
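Readout is the increase over vehicle in equivalent chloride current AUC from forskolin/VX-770 addition to bumetanide, measured by current clamp at 36 °C after benzamil block of ENaC. Cultures were homozygous ΔF508 primary lung epithelium grown ≥4 weeks at air-liquid interface and exposed basolaterally to compound for 24 h.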

This is an account of results in patent US11136313B2, “Compounds, compositions, and methods for modulating CFTR” (Proteostasis Therapeutics, Inc., priority 2015, dated 2021).

T1 sequence (P13569 with tags, fused parts or gaps DEL508-508): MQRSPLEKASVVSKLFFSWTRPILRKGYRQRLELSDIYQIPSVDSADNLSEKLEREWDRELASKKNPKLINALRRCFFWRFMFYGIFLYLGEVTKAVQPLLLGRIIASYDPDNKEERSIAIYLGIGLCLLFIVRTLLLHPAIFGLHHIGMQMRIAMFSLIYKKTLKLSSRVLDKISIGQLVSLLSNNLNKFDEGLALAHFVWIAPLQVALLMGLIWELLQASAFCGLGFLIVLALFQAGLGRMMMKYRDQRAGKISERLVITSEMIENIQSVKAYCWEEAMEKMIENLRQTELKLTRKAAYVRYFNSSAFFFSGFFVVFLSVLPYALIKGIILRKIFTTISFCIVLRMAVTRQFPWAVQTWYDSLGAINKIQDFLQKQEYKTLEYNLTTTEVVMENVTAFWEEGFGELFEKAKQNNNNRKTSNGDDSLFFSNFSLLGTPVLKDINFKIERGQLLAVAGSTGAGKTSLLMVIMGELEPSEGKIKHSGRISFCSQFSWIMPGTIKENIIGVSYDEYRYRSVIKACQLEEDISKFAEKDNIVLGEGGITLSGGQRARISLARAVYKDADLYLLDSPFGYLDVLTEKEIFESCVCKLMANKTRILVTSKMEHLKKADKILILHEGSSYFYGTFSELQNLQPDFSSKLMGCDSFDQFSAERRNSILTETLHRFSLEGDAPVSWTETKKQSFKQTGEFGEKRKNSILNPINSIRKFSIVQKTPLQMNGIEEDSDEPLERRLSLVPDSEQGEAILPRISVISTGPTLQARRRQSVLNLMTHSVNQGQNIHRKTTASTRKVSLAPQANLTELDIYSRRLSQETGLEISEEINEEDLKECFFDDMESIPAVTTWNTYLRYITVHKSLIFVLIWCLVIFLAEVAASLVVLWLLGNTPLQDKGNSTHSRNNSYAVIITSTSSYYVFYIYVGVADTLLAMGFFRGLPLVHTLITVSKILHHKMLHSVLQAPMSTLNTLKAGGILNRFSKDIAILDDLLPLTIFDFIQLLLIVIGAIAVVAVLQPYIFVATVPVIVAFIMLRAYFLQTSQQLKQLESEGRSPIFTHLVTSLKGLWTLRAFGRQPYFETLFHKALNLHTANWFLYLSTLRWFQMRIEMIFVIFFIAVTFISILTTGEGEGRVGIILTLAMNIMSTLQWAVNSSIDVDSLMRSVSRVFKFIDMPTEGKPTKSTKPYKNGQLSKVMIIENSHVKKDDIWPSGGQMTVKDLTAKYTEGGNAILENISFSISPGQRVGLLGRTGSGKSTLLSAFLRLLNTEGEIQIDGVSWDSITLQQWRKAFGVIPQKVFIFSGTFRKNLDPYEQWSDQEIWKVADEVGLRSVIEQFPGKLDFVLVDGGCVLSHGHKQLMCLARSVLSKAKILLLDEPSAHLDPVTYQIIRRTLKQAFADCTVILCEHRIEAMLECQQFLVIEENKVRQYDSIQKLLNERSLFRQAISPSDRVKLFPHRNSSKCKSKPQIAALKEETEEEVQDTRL

On to `Cc1c(-c2cc(C(=O)[O-])c3c(OCc4cccc(C#N)c4)ccc(C)c3n2)sc2ccccc12.[Na+]` [Compound 298, Sodium 5-[(3-Cyanophenyl)methoxy]-8-methyl-2-(3-methyl-1-benzothiophen-2-yl)quinoline-4-carboxylate], for which the Activity entry is “++ (activity>50% of CFTR amplifier+VX-809 (3 uM) with compound at 10 uM and Compound A at 3 uM)”.
As for `Cc1ccc(C)c2c(C(=O)O)cc(-c3cc4ccccc4o3)nc12` [Compound 10, 2-(1-Benzofuran-2-yl)-5,8-dimethylquinoline-4-carboxylic acid], the Activity entry was “+ (activity<50% of an CFTR amplifier (Compound A)+VX-809 (3 uM) with compound at 10 uM and Compound A at 3 uM)”.
On to `Cc1ccc2oc(-c3cc(C(=O)O)c4c(C)ccc(C)c4n3)c(C)c2c1` [Compound 127, 2-(3,5-Dimethylbenzofuran-2-yl)-5,8-dimethylquinoline-4-carboxylic acid], for which the Activity result was “++ (activity>50% of CFTR amplifier+VX-809 (3 uM) with compound at 10 uM and Compound A at 3 uM)”.
In the case of `Cc1c(-c2cc(C(=O)O)c3cc(-c4ccccc4)cc(C)c3n2)oc2ccccc12` [Compound 37], the Activity result is “++ (activity>50% of CFTR amplifier+VX-809 (3 uM) with compound at 10 uM and Compound A at 3 uM)”.
The value for `Cc1ccc(C)c2c(C(=O)O)cc(-c3cc4ccccc4s3)nc12` [Compound 13, 2-(1-Benzothiophen-2-yl)-5,8-dimethylquinoline-4-carboxylic acid] was “+ (activity<50% of an CFTR amplifier (Compound A)+VX-809 (3 uM) with compound at 10 uM and Compound A at 3 uM)”; that for `Cc1c(-c2cc(C(=O)O)c3c(NCc4ccccc4)ccc(C)c3n2)oc2ccccc12` [Compound 116, 5-(Benzylamino)-8-methyl-2-(3-methyl-1-benzofuran-2-yl)quinoline-4-carboxylic Acid] was “++ (activity>50% of CFTR amplifier+VX-809 (3 uM) with compound at 10 uM and Compound A at 3 uM)”.
Turning to `COc1cccc(COc2ccc(C)c3nc(-c4sc5ccccc5c4C)cc(C(=O)[O-])c23)c1.[Na+]` [Compound 293, Sodium 5-[(3-Methoxyphenyl)methoxy]-8-methyl-2-(3-methyl-1-benzothiophen-2-yl)quinoline-4-carboxylate], the Activity result was “++ (activity>50% of CFTR amplifier+VX-809 (3 uM) with compound at 10 uM and Compound A at 3 uM)”.
Turning to `Cc1c(-c2cc(-c3cc(O)[nH]n3)c3c(OC(C)c4ccccc4)ccc(C)c3n2)oc2ccccc12` (centres unmarked) [Compound 362], the Activity entry is “+ (activity<50% of an CFTR amplifier (Compound A)+VX-809 (3 uM) with compound at 10 uM and Compound A at 3 uM)”.
Regarding `Cc1c(-c2cc(C(=O)O)c3c(OCc4ccccc4)ccc(Cl)c3n2)oc2ccccc12` [Compound 111, 5-(Benzyloxy)-8-chloro-2-(3-methyl-1-benzofuran-2-yl)quinoline-4-carboxylic acid], the Activity entry was “+ (activity<50% of an CFTR amplifier (Compound A)+VX-809 (3 uM) with compound at 10 uM and Compound A at 3 uM)”.
Regarding `CCc1ccc(O[C@H]2CCC[C@@H](C)C2)c2c(C(=O)O)cc(-c3csc4ccccc34)nc12` [Compound 181, 2-(1-Benzothiophen-3-yl)-8-ethyl-5-[[(1S,3R)-3-methylcyclohexyl]oxy]quinoline-4-carboxylic Acid], the Activity entry was “++ (activity>50% of CFTR amplifier+VX-809 (3 uM) with compound at 10 uM and Compound A at 3 uM)”.
As to `Cc1c(-c2cc(C(=O)O)c3c(C)ccc(C)c3n2)oc2c(C)cccc12` [Compound 125, 2-(3,7-Dimethyl-1-benzofuran-2-yl)-5,8-dimethylquinoline-4-carboxylic acid], the Activity entry was “++ (activity>50% of CFTR amplifier+VX-809 (3 uM) with compound at 10 uM and Compound A at 3 uM)”.
The value for `Cc1c(-c2cc(C(=O)O)c3c(OCC(F)F)ccc(C)c3n2)oc2ccccc12` [Compound 122, 5-(2,2-Difluoroethoxy)-8-methyl-2-(3-methyl-1-benzofuran-2-yl)quinoline-4-carboxylic acid] was “++ (activity>50% of CFTR amplifier+VX-809 (3 uM) with compound at 10 uM and Compound A at 3 uM)”; that for `Cc1cc(C)c2nc(-c3csc4ccccc34)cc(C(=O)O)c2c1` [Compound 8, 2-(1-Benzothiophen-3-yl)-6,8-dimethylquinoline-4-carboxylic acid] was “+ (activity<50% of an CFTR amplifier (Compound A)+VX-809 (3 uM) with compound at 10 uM and Compound A at 3 uM)”; that for `Cc1c(-c2cc(C(=O)[O-])c3c(O[C@H](C)C4CCOCC4)ccc(C)c3n2)oc2ccccc12.[Na+]` [Compound 245, Sodium 5-((1R)-1-(tetrahydro-2H-pyran-4-yl)ethoxy)-8-methyl-2-(3-methyl-1-benzofuran-2-yl)quinoline-4-carboxylate] was “++ (activity>50% of CFTR amplifier+VX-809 (3 uM) with compound at 10 uM and Compound A at 3 uM)”.
On to `CCc1ccc(OC2CCCCC2)c2c(C(=O)O)cc(-c3sc4ccccc4c3C)nc12` [Compound 135, 5-(Cyclohexyloxy)-8-ethyl-2-(3-methyl-1-benzothiophen-2-yl)quinoline-4-carboxylic acid], for which the Activity result is “++ (activity>50% of CFTR amplifier+VX-809 (3 uM) with compound at 10 uM and Compound A at 3 uM)”.
The value for `Cc1c(-c2cc(C(=O)[O-])c3c(O[C@@H](C)c4ccc(S(C)(=O)=O)cc4)ccc(C)c3n2)sc2ccccc12.[Na+]` [Compound 266] was “++ (activity>50% of CFTR amplifier+VX-809 (3 uM) with compound at 10 uM and Compound A at 3 uM)”; that for `Cc1c(-c2cc(CC(=O)O)c3c(OC(C)c4ccccc4)ccc(C)c3n2)oc2ccccc12` (centres unmarked) [Compound 276, 2-[8-Methyl-2-(3-methyl-1-benzofuran-2-yl)-5-(1-phenylethoxy)quinolin-4-yl]acetic Acid] was “++ (activity>50% of CFTR amplifier+VX-809 (3 uM) with compound at 10 uM and Compound A at 3 uM)”.
Under `COc1cc(C)c2nc(-c3oc4ccccc4c3C)cc(C(=O)O)c2c1` [Compound 23, 6-Methoxy-8-methyl-2-(3-methyl-1-benzofuran-2-yl)quinoline-4-carboxylic acid] stands “++ (activity>50% of CFTR amplifier+VX-809 (3 uM) with compound at 10 uM and Compound A at 3 uM)”; under `Cc1c(-c2cc(C(=O)[O-])c3c(O[C@H]4C[C@H]5CC[C@@H](C4)O5)ccc(C)c3n2)sc2ccccc12.[Na+]` [Compound 353], “++ (activity>50% of CFTR amplifier+VX-809 (3 uM) with compound at 10 uM and Compound A at 3 uM)”.
The value for `COc1ccccc1COc1ccc(C)c2nc(-c3sc4ccccc4c3C)cc(C(=O)[O-])c12.[Na+]` [Compound 292, Sodium 5-[(2-Methoxyphenyl)methoxy]-8-methyl-2-(3-methyl-1-benzothiophen-2-yl)quinoline-4-carboxylate] was “++ (activity>50% of CFTR amplifier+VX-809 (3 uM) with compound at 10 uM and Compound A at 3 uM)”; that for `Cc1oc2ccccc2c1-c1cc(C(=O)O)c2c(OC(F)F)ccc(C)c2n1` [Compound 123, 5-(Difluoromethoxy)-8-methyl-2-(2-methyl-1-benzofuran-3-yl)quinoline-4-carboxylic acid] was “+ (activity<50% of an CFTR amplifier (Compound A)+VX-809 (3 uM) with compound at 10 uM and Compound A at 3 uM)”.
`Cc1c(-c2cc(C(=O)[O-])c3c(O[C@@H]4CCC[C@H](c5ccccc5)C4)ccc(C)c3n2)oc2ccccc12.[Na+]` [Compound 300]: the Activity result was “++ (activity>50% of CFTR amplifier+VX-809 (3 uM) with compound at 10 uM and Compound A at 3 uM)”.
As for `Cc1c(-c2cc(C(=O)[O-])c3c(OCc4ccc(S(C)(=O)=O)cc4)ccc(C)c3n2)sc2ccccc12.[Na+]` [Compound 264], the Activity result is “++ (activity>50% of CFTR amplifier+VX-809 (3 uM) with compound at 10 uM and Compound A at 3 uM)”.
The value for `Cc1c(-c2cc(C(=O)[O-])c3c(O[C@H](C)c4ccn5nccc5c4)ccc(C)c3n2)oc2ccccc12.[Na+]` [Compound 257, Sodium 8-Methyl-2-((1R)-3-methyl-1-benzofuran-2-yl)-5-(1-[pyrazolo[1,5-a]pyridin-5-yl]ethoxy)quinoline-4-carboxylate] was “++ (activity>50% of CFTR amplifier+VX-809 (3 uM) with compound at 10 uM and Compound A at 3 uM)”; that for `Cc1c(-c2cc(C(=O)[O-])c3c(OCc4c(F)cccc4F)ccc(C)c3n2)sc2ccccc12.[Na+]` [Compound 294, Sodium 5-[(2,6-Difluorophenyl)methoxy]-8-methyl-2-(3-methyl-1-benzothiophen-2-yl)quinoline-4-carboxylate] was “++ (activity>50% of CFTR amplifier+VX-809 (3 uM) with compound at 10 uM and Compound A at 3 uM)”.
Under `Cc1oc2ccccc2c1-c1cc(C(=O)O)c2c(OCc3ccccc3)ccc(C3CC3)c2n1` [Compound 106, 5-(Benzyloxy)-8-cyclopropyl-2-(2-methyl-1-benzofuran-3-yl)quinoline-4-carboxylic acid] stands “++ (activity>50% of CFTR amplifier+VX-809 (3 uM) with compound at 10 uM and Compound A at 3 uM)”.
The value for `Cc1c(-c2cc(C(=O)O)c3c(OCc4ccccc4)ccc(C(C)C)c3n2)oc2ccccc12` [Compound 109, 5-(Benzyloxy)-2-(3-methyl-1-benzofuran-2-yl)-8-(propan-2-yl)quinoline-4-carboxylic acid] was “++ (activity>50% of CFTR amplifier+VX-809 (3 uM) with compound at 10 uM and Compound A at 3 uM)”; that for `Cc1c(-c2cc(C(=O)[O-])c3c(OC[C@H]4C[C@H]5CC[C@@H](C4)O5)ccc(C)c3n2)sc2ccccc12.[Na+]` [Compound 359] was “++ (activity>50% of CFTR amplifier+VX-809 (3 uM) with compound at 10 uM and Compound A at 3 uM)”; that for `COCC[C@@H](Oc1ccc(C)c2nc(-c3sc4ccccc4c3C)cc(C(=O)[O-])c12)c1ccccc1.[Na+]` [Compound 313] was “++ (activity>50% of CFTR amplifier+VX-809 (3 uM) with compound at 10 uM and Compound A at 3 uM)”.
